We go through eleven molecules from ChEMBL document CHEMBL1201862, “PubChem BioAssay data set” (2004).

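The compound was tested at five concentrations on cells cultured in 96-well plates, with a 48-hour exposure period. GI50 is the concentration that inhibits growth by half.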 The source made the active and inactive calls. Rule as the data show it: active = GI50 up to about 1.1 µM and inactive = higher. Residues, ends and D or L forms follow the SMILES beside them.

Some test systems named below: SF-539; A549; RPMI-8226; PC-3; SW-620; COLO 205; T47D; IGROV-1; M14; Hs-578T; UACC-257; NCI-H23; OVCAR-3; RXF 393; 786-0; UACC-62; HT-29; MDA-N; UO-31; HOP-62.
Common to all, as to assay: growth of human tumour cells (NCI), 48 h

`[O-][Cl+3]([O-])([O-])[O-].[O-][Cl+3]([O-])([O-])[O-].c1ccn2c(N3CCCC3)[n+]3c4ccccc4n4c(N5CCCC5)[n+]5ccccc5c4c3c2c1`: the GI50 in the assay with SF-539 is 57.9 µM (inactive); in the assay on A549, > 100 µM (inactive); in the assay on RPMI-8226, 98.6 µM (inactive); in the assay with PC-3 it was 46.5 µM (inactive); in the assay with SW-620, > 100 µM (inactive); in the assay with COLO 205, 20 µM (inactive). Also, the GI50 in the assay with T47D is 43.5 µM (inactive); in the assay with IGROV-1, 42.7 µM (inactive); in the assay on M14, > 100 µM (inactive); in the assay on Hs-578T, 33.4 µM (inactive); in the assay with UACC-257, 34.6 µM (inactive); with NCI-H23, 54.5 µM (inactive). Also, the GI50 in the assay on OVCAR-3 was 87.5 µM (inactive); with RXF 393 it was 38.3 µM (inactive); in the assay on 786-0 it was 27.6 µM (inactive); with UACC-62, 41.8 µM (inactive).
As for `NC1CNC(=O)c2cscc21` (centres undefined), the GI50 in the assay on A549 is > 100 µM (inactive); in the assay with HT-29, > 100 µM (inactive); in the assay with RPMI-8226, > 100 µM (inactive); in the assay on PC-3, 53.2 µM (inactive); with SW-620, > 100 µM (inactive); with MDA-N, > 100 µM (inactive). Also, the GI50 in the assay on COLO 205, with IGROV-1, in the assay on M14, in the assay with Hs-578T, with UACC-257 and in the assay on NCI-H23 was > 100 µM (inactive) in each case. Also, the GI50 in the assay on OVCAR-3, in the assay on RXF 393, in the assay on 786-0, with UO-31 and with UACC-62 was > 100 µM (inactive) each time.
Turning to `Cc1ccnc(Nc2[nH]c(C(=O)c3ccc(Cl)cc3)c(N)c2C(=S)Nc2ccccc2)c1`, the GI50 in the assay with SF-539 is 12.7 µM (inactive); with A549 it was 16 µM (inactive); in the assay on HT-29, 14.9 µM (inactive); with RPMI-8226 it was 11 µM (inactive); in the assay with PC-3 it was 20.8 µM (inactive); with SW-620 it was 25.9 µM (inactive). Also, the GI50 with MDA-N is 15.2 µM (inactive); in the assay with COLO 205, 16 µM (inactive); in the assay on T47D, 19.7 µM (inactive); in the assay with IGROV-1, 9.02 µM (inactive); with M14 it was 16.4 µM (inactive); with UACC-257, 15.6 µM (inactive). For the same molecule, the GI50 in the assay on NCI-H23 is 19.3 µM (inactive); in the assay with OVCAR-3 it was 25.8 µM (inactive); in the assay with RXF 393 it was 15.9 µM (inactive); in the assay on 786-0, 19.1 µM (inactive); in the assay on UO-31 it was 18 µM (inactive); in the assay on HOP-62 it was 20.5 µM (inactive). Also, the GI50 with UACC-62 is 10.6 µM (inactive).
Regarding `CCCCc1ccc(-n2sc3ncc(-c4ccccc4)cc3c2=O)cc1`, the GI50 with A549, in the assay on RPMI-8226, in the assay on PC-3, in the assay with SW-620, with MDA-N and with COLO 205 was > 100 µM (inactive) throughout. For the same molecule, the GI50 in the assay on T47D is 22.6 µM (inactive); in the assay with IGROV-1, > 100 µM (inactive); with M14, > 100 µM (inactive); with UACC-257 it was > 10 µM (inactive); in the assay with NCI-H23, > 100 µM (inactive); in the assay with OVCAR-3, > 100 µM (inactive). In addition, the GI50 in the assay with RXF 393, with 786-0, in the assay with UO-31, in the assay with HOP-62 and in the assay with UACC-62 was > 100 µM (inactive) throughout.
Take `Cc1c(N2C(=O)/C(=C/C=C/c3ccccc3)N=C2c2ccccc2)c(=O)n(-c2ccccc2)n1C`: the GI50 with SF-539 is 21.3 µM (inactive); in the assay with A549 it was 25.6 µM (inactive); with HT-29, 20.3 µM (inactive); with RPMI-8226, 19.1 µM (inactive); in the assay with PC-3, 25.6 µM (inactive); in the assay on SW-620 it was 31.6 µM (inactive). Also, the GI50 in the assay with MDA-N is 17.8 µM (inactive); in the assay with COLO 205 it was 15.5 µM (inactive); in the assay on T47D it was 30.8 µM (inactive); with IGROV-1 it was 16.3 µM (inactive); in the assay on M14 it was 31.4 µM (inactive); with UACC-257, 18.9 µM (inactive). Further, the GI50 was 22 µM (inactive) with NCI-H23; 20.4 µM (inactive) with OVCAR-3; 17.9 µM (inactive) with RXF 393; 29.3 µM (inactive) with 786-0; 18.4 µM (inactive) in the assay on UO-31; 26.5 µM (inactive) in the assay on HOP-62. Besides, in the assay with UACC-62, the GI50 was 16.4 µM (inactive).
As for `Cn1cc(C2NC(=O)c3ccccc3N2)c2ccccc21` (centres undefined), the GI50 was 1.86 µM (inactive) in the assay on SF-539; 1.22 µM (inactive) in the assay on A549; 0.191 µM (active) in the assay on HT-29; 0.249 µM (active) with RPMI-8226; 0.188 µM (active) in the assay on PC-3; 0.542 µM (active) in the assay with SW-620. In addition, the GI50 was 0.0632 µM (active) in the assay with MDA-N; 0.925 µM (active) in the assay with COLO 205; 1.51 µM (inactive) with IGROV-1; 0.578 µM (active) in the assay with M14; 0.649 µM (active) in the assay with Hs-578T; 5.6 µM (inactive) in the assay on UACC-257. For the same molecule, the GI50 was 1.31 µM (inactive) with NCI-H23; 0.489 µM (active) with OVCAR-3; 0.681 µM (active) in the assay on RXF 393; 0.955 µM (active) in the assay on 786-0; > 100 µM (inactive) in the assay with UO-31; 0.861 µM (active) in the assay on HOP-62. Moreover, the GI50 in the assay with UACC-62 was 0.373 µM (active).
For the molecule `NCCNCCNc1ccc(NCCNCCN)c2c1C(=O)c1c(O)ccc(O)c1C2=O`, the GI50 with SF-539, in the assay on A549, with HT-29, in the assay with RPMI-8226, in the assay on PC-3 and in the assay on SW-620 was > 100 µM (inactive) throughout. In addition, the GI50 in the assay with MDA-N is > 100 µM (inactive); with COLO 205, > 100 µM (inactive); in the assay on IGROV-1, > 100 µM (inactive); in the assay with M14, > 100 µM (inactive); in the assay on Hs-578T it was 68.7 µM (inactive); with UACC-257 it was > 100 µM (inactive). The GI50 with NCI-H23, with OVCAR-3, in the assay on RXF 393, with 786-0, in the assay on UO-31 and with HOP-62 was > 100 µM (inactive) each time. In the assay with UACC-62, the GI50 is > 100 µM (inactive).
Consider `CNc1nc(=S)[nH]c2sc3c(c12)CCCC3`, for which the GI50 in the assay with HT-29, in the assay on RPMI-8226, in the assay on PC-3, in the assay with SW-620, in the assay with COLO 205 and in the assay with T47D was > 75 µM (inactive) each time. Also, the GI50 in the assay with IGROV-1, in the assay on Hs-578T, in the assay on UACC-257, with NCI-H23, in the assay with OVCAR-3 and in the assay with RXF 393 was > 75 µM (inactive) each time. Also, the GI50 was > 75 µM (inactive) with 786-0, 67 µM (inactive) in the assay with UO-31, > 75 µM (inactive) with HOP-62 and > 75 µM (inactive) in the assay on UACC-62.
For the molecule `Fc1ccc(-c2sc(-c3ccsc3)cc2Cc2ccsc2)cc1`, the GI50 in the assay with A549, with HT-29, with RPMI-8226, with PC-3, with SW-620 and in the assay with MDA-N was > 10 µM (inactive) throughout. For the same molecule, the GI50 in the assay on COLO 205, with T47D, in the assay with IGROV-1, in the assay on M14, in the assay on UACC-257 and in the assay with NCI-H23 was > 10 µM (inactive) each time. Also, the GI50 with RXF 393, with 786-0, in the assay on HOP-62 and in the assay with UACC-62 was > 10 µM (inactive) throughout.
Turning to `CCC(C)C(NC(=O)C(CCCCN)NC(=O)C(NC(=O)C(CCC(N)=O)NC(=O)C(N)CCCNC(=N)N)C(C)CC)C(=O)NC(Cc1c[nH]c2ccccc12)C(=O)NC(Cc1ccccc1)C(=O)NC(CCC(N)=O)C(=O)NC(CC(N)=O)C(=O)NC(CCCNC(=N)N)C(=O)NC(CCCNC(=N)N)C(=O)NC(CCSC)C(=O)NC(CCCCN)C(=O)NC(Cc1c[nH]c2ccccc12)C(=O)NC(CCCCN)C(=O)NC(CCCCN)C(=O)N1CCCC1C(=O)NC(C)C(=O)NC(CCCCN)C(=O)NC(CCCNC(=N)N)C(=O)NC(CCCCN)C(=O)NC(CC(C)C)C(=O)NC(Cc1ccccc1)C(=O)NCC(=O)O` (centres undefined) (H-RQIKIWFQNRRMKWKKPAKRKLFG-OH; configuration not given here), the GI50 in the assay on A549 is > 25 µM (inactive); with HT-29 it was > 25 µM (inactive); with RPMI-8226, 5.93 µM (inactive); with PC-3 it was > 25 µM (inactive); in the assay with SW-620, > 25 µM (inactive); with MDA-N, > 25 µM (inactive). Further, the GI50 was > 25 µM (inactive) with COLO 205; > 25 µM (inactive) in the assay on IGROV-1; 12.1 µM (inactive) with M14; 21.1 µM (inactive) with Hs-578T; 21.9 µM (inactive) in the assay on UACC-257; > 25 µM (inactive) in the assay with NCI-H23. The GI50 was > 25 µM (inactive) with OVCAR-3; > 25 µM (inactive) in the assay on RXF 393; 17.5 µM (inactive) with 786-0; > 25 µM (inactive) in the assay on UO-31; > 25 µM (inactive) with HOP-62.
Regarding `c1nc(OCC2CCCCC2)c2nc[nH]c2n1`, the GI50 in the assay on SF-539 is 36.1 µM (inactive); in the assay on A549, 66.4 µM (inactive); in the assay with HT-29 it was 49.9 µM (inactive); with RPMI-8226, 15.6 µM (inactive); in the assay with PC-3, 85.9 µM (inactive); in the assay on SW-620, 59.6 µM (inactive). Besides, the GI50 in the assay on MDA-N was 28.2 µM (inactive); in the assay on COLO 205 it was 32 µM (inactive); with IGROV-1, 46.5 µM (inactive); in the assay on M14, 59.4 µM (inactive); with Hs-578T it was > 100 µM (inactive); in the assay with UACC-257, 91.8 µM (inactive). In addition, the GI50 in the assay with NCI-H23 is 45.3 µM (inactive); in the assay with OVCAR-3 it was 53.1 µM (inactive); in the assay with RXF 393, 60.7 µM (inactive); with 786-0 it was > 100 µM (inactive); in the assay with UO-31, 42.9 µM (inactive); with HOP-62, 55.7 µM (inactive). In addition, the GI50 in the assay on UACC-62 was 47.1 µM (inactive).
